Source: patent publication US20220002806A1, “BIOMARKER” (ERBER AKTIENGESELLSCHAFT, priority 2018, published 2022)

System: miRNAs in serum
Assay: Targeted qPCR-based miRNA analysis in blood serum of ZEN-exposed piglets
Assay type: in vivo, pig
Source text: Weaned female piglets (sow: Landrace×Large White, boar: Pietrain; 30+/−2 days old) were obtained from a local producer and individually tagged. Piglets were housed in slatted floor pens under controlled environmental conditions. After an acclimatization period of seven days, twenty-four female piglets were selected based on both body weight and vulva size, and allocated to one of four groups (6 animals/group). Piglets received either blank feed (negative control; Ctrl) or feed contaminated with ZEN in three increasing concentrations (ZEN low: 0.17 mg/kg diet; ZEN medium: 1.5 mg/kg diet; ZEN high: 4.6 mg/kg diet). During the 28-day experimental period, each treatment group was given free access to water and the assigned diet. The pigs were observed daily and weighed weekly.
Blood was collected weekly (d 0, 6, 14, 21 and 28) from individual animals by punctuation of the vena cava cranialis (Primavette® EDTA, Kabe Labortechnik GmbH, Nümbrecht-Elsenroth, Deutschland). After centrifugation (1500×g, 20 min), serum samples were stored at −80° C. for later analysis. Vulva length and width were measured at regular intervals with a caliper to determine the dietary ZEN effects. The vulva area was calculated as vulva length×vulva width, as previously reported (Jiang et al. 2011. Journal of animal science, 89, 3008-3015). Eight measurements were done per piglet over the experimental period.
miRNA extraction and qPCR analysis: Unlike the small-RNA-Seq analysis, all the animals from the feeding trial were used for investigations of the miRNA profile in the serum (6 per group; total of 24 animals). RNA was isolated from the serum samples using the miRNeasy Mini Kit (Qiagen, Germany). […] To calculate the cycle of quantification values (Cq-values), the second derivative method was used, as known by a person skilled in the art. Cq-values were normalized to the mean Cq-value in each sample (global mean normalization) by subtracting the individual miRNA Cq-value from the Cq average calculated for that sample. […]

[1] = Ctrl vs ZEN high group (4.6 mg/kg diet), day 6 or day 28, unadjusted p-value ≤0.1

## C[C@H]1CCCC(=O)CCC/C=C/c2cc(O)cc(O)c2C(=O)O1 [ZEN, (2E,11S)-15,17-dihydroxy-11-methyl-12-oxabicyclo[12.4.0]octadeca-1(18),2,14,16-tetraene-7,13-dione]
[1]
  serum levels of ssc-miR-1, ssc-miR-142-3p, ssc-miR-181c and ssc-miR-182: down-regulated
  serum levels of ssc-miR-140-3p, ssc-miR-455-3p, ssc-miR-455-5p and ssc-miR-542-3p: Up-regulated
Ctrl vs ZEN high group, log 2 fold changes ≤−0.8 or ≥0.8
  log 2-transformed fold changes of serum ssc-miR-129a, ssc-miR-135, ssc-miR-206, ssc-miR-432-5p, ssc-miR-493-3p and ssc-miR-503: considerable effect
